Among the data in EP0790989B1, “CERTAIN SUBSTITUTED BENZYLAMINE DERIVATIVES; A NEW CLASS OF NEUROPEPTIDE Y1 SPECIFIC LIGANDS” (PFIZER INC., priority 1994, dated 1996) are IC50 values, retold here.

Each structure is given as a SMILES string. Where a name gives a salt, the structure may show the parent alone.

In this test the target is T1, human NPY1 receptors (Homo sapiens, UniProt P25929).
T1 construct: SK-N-MC cells were purchased from ATCC (Rockville, MD); host or cells: SK-N-MC cells (human neuroepithelioma line), intact confluent monolayers
T1 sequence (P25929 1-384): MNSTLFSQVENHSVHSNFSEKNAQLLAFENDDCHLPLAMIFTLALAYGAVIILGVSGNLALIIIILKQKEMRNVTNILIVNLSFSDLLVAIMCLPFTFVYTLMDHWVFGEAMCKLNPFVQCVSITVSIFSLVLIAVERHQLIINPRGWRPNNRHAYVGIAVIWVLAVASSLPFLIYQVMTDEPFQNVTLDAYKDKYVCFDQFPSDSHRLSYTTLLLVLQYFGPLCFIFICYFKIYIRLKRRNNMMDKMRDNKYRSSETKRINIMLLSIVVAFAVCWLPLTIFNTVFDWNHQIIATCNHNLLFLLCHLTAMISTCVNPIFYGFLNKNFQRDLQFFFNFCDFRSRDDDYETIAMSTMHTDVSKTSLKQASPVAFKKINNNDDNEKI
Kind of test: Assay for Human NPY1 receptor binding activity ([125I]PYY binding to SK-N-MC cells). The conditions noted are these: IC50, [125I]PYY (~50 pM) binding to confluent SK-N-MC cells, 3 hour incubation at room temperature. The procedure:
The procedure used is similar to that described by Gordon et al. (J. Neurochem. 55:506-513, 1990). SK-N-MC cells were purchased from ATCC (Rockville, MD). Cells were maintained at 37°C and 5% CO2 in Dulbecco's modified essential media (DMEM) with L-glutamine and 110 mg/L sodium pyruvate, which was supplemented with 10% fetal bovine serum and 25 mM HEPES (pH 7.3). The binding assay was performed in 24-well plates (Falcon) when the cells were confluent. Taking care to not disturb the cells on the bottom of the wells, the media was aspirated, and 0.5 ml of Dulbecco's phosphate buffered saline (DPBS) with calcium and magnesium were added to each well. The DPBS was aspirated and an additional aliquot of DPBS was added and aspirated. To begin the assay, binding buffer consisting of serum-free DMEM containing 0.5% bovine serum albumin, 0.1% bacitracin and 0.1 mM phenylmethylsulfonylfluoride was added to each well. The cells and the binding buffer preincubated for 30 minutes at room temperature, at which point the drug dilution and [^125I]PYY (NEN-DuPont: 50000 -75000 cpm ∼ 50 pM) were added to yield a final volume of 250 ul. Nonspecific binding was defined with […] NPY (porcine or human, Bachem California). After a 3 hour incubation at room temperature, the plates were then put on ice and the wells were aspirated. The cells were washed 4-6 times with 0.5 ml of ice-cold DPBS. A dilute solution of Triton X-100 (1%) was then added to each well. After approximately 1 hour at room temperature, an aliquot from each well was transferred to a 12x75 mm testtube, and the amount of [^125I] was quantitated on a gamma counter with an efficiency of 80-85% (Genesys 5000, Laboratory Technologies). IC50 values were calculated with the non-linear curve fitting program RS/1 (BBN Software Products Corp., Cambridge, MA).
Broadly, the IC50 is the midpoint of a concentration-inhibition curve. The low end stands for inhibition by little substance, the high end for a need for much substance. Take `CCOc1cccc(C2(N3CCN(c4ccccc4)CC3)CCCCC2)c1` [Compound 9, 1-(3-Ethoxyphenyl)-1-(4-phenylpiperazin-1-yl)-cyclohexane dihydrochloride]: the IC50 was found to be 137 nM.
The figure for `COc1cccc(C2(N3CCN(c4ccccc4)CC3)CCC(C)CC2)c1` (stereo not drawn) [Compound 13, 1-(3-Methoxyphenyl)-1-(4-phenylpiperazin-1-yl)-4-methyl-cyclohexane dihydrochloride] is 67 nM.
The compound `CCOc1cccc(C2(N3CCN(c4ccccc4)CC3)CCC(C)CC2)c1` (stereo not drawn) [Compound 18, 1-(3-Ethoxyphenyl)-1-(4-phenylpiperazin-1-yl)-4-methyl-cyclohexane dihydrochloride] showed an IC50 of 75 nM.
The compound `CCOc1cccc(C2(N3CCN(c4ccccc4)CC3)CCC(CC)CC2)c1` (stereo not drawn) [Compound 20, 1-(3-Ethoxyphenyl)-1-(4-phenylpiperazin-1-yl)-4-ethyl-cyclohexane dihydrochloride] registered an IC50 of 76 nM.
`CCOc1cccc(C2(N3CCN(c4ccccc4)CC3)CCC(CC)CC2)c1` (stereo not drawn) [Compound 21, 1-(3-Ethoxyphenyl)-1-(4-phenylpiperazin-1-yl)-4-ethyl-cyclohexane dihydrochloride] had a 50% inhibitory concentration (IC50) of 525 nM.
The figure for `COCOc1cccc(C2(N3CCN(c4ccccc4)CC3)CCC(C)CC2)c1` (stereo not drawn) [Compound 29, 1-(3-Methoxymethoxyphenyl)-1-(4-phenylpiperazin-1-yl)-4-methyl-cyclohexane dihydrochloride] is 39 nM.
